In PubChem BioAssay AID2305 (GlaxoSmithKline (GSK), 2010):
pIC50: −log10 of the molar value.

These compounds were tested on P. falciparum 3D7 growth, pLDH absorbance (assay: P. falciparum 3D7 growth inhibition, dose response, strain 3D7 (AID 2305)).

Going from `COc1cccc(C(=O)NC(c2ccccc2OC)c2cc(Cl)c3cccnc3c2O)c1` (centres undefined) to `COc1ccc2nccc([C@@H](O)CN3CCC(NCc4nc5c(OCc6ccccc6)cccc5[nH]4)CC3)c2c1`, the pIC50 rises from 5.92 to 6.74 (0.82 log units).

`CCc1cc(NC2CCN(C)CC2)nc(Nc2cccc(OC)c2)n1` and `CC(C)CCN1CCC(Oc2cccc(NC(=O)c3ccc(C(F)(F)F)cc3)c2)CC1` are within 0.2 log units of each other in pIC50: 6.07 for the first, 6.20 for the second.

`CSCCCN1CCC(O)(c2ccc3oc(C(=O)Nc4ccc5sc(C)nc5c4)cc3c2)CC1` and `CN1CCc2cc(NC(=O)c3cc4ccccc4s3)cc(-c3ccccc3)c2CC1` are within 0.2 log units of each other in pIC50: 5.97 for the first, 6.05 for the second.

`O=C(NCCCCCN1CCC(c2c[nH]c3ccccc23)CC1)Nc1cccc(Cl)c1` and `COc1ccc2[nH]cc(C3CCN(Cc4ccc(NC(=O)c5ccc(-c6ccccc6)cc5)cc4)CC3)c2c1` are within 0.2 log units of each other in pIC50: 5.99 for the first, 6.11 for the second.

First: Cn1nc(-c2ccc(CNC3CCc4ccccc43)cc2)c2cnc(NCCCN3CCCC3)nc21 (centres undefined)
Second: Fc1ccc2nc(-c3cccc(-c4ccc(CN5CCC(CCN6CCCCC6)CC5)cc4)c3)[nH]c2c1
The pIC50 of the first is 0.90 log units lower: 5.95 for the first, 6.85 for the second. The second is the more potent here.

`COc1ccc(-c2ccc(NC(=O)c3cccc(C#N)c3)cc2)cc1CN1CCCC(C(N)=O)C1` (centres undefined) and `Cc1ccc(NC(=O)c2ccc3ncccc3c2)cc1OC1CCN(Cc2ccco2)C1` (centres undefined) are within 0.2 log units of each other in pIC50: 6.07 for the first, 5.90 for the second.

`Cc1ccc(-c2cc(C(=O)Nc3ccc(S(=O)(=O)N4CCCCC4C)cc3)[nH]n2)c(O)c1` (centres undefined) and `COc1ccc(NS(=O)(=O)c2ccc(C(=O)Nc3ccc(OC(F)(F)F)cc3)cc2)cc1N1CCN(CC2CC2)CC1` are within 0.2 log units of each other in pIC50: 5.97 for the first, 6.00 for the second.

First: O=C(Nc1ccc(Br)cc1)N(CCN1CCOCC1)CC(O)COCc1ccc(F)cc1 (centres undefined)
Second: O=C(Nc1ccc(OC2CCN(Cc3ccc(F)cc3)CC2)c(Cl)c1)c1ccco1
The pIC50 of the first is 0.54 log units lower: 5.98 for the first, 6.52 for the second. The second is the more potent here.

`O=C(NC1CCN(Cc2ccccc2O)C1)c1ccc(Cl)c(Cl)c1` (centres undefined) and `O=C(Nc1ccc(OC2CCN(Cc3ccsc3)C2)c(Cl)c1)c1cccs1` (centres undefined) are within 0.2 log units of each other in pIC50: 6.05 for the first, 6.02 for the second.

First: O=C(Nc1cccc(-c2ccc(-c3nc4ccc(F)cc4[nH]3)cc2)c1)c1csnn1
Second: O=C(Nc1cccc(-c2ccc(-c3nc4ccc(F)cc4[nH]3)cc2)c1)Nc1ccc(Cl)c(Cl)c1
The pIC50 of the first is 0.30 log units lower: 6.55 for the first, 6.85 for the second. The second is the more potent here.

First: Cc1c(-c2cccc(Br)c2)[nH]c2nc(N)nc(N)c12
Second: Cc1cccc2[nH]c(-c3cccc(-c4ccc(NC(=O)COC(C)C)cc4)c3)nc12
The pIC50 of the first is 0.21 log units higher: 6.13 for the first, 5.92 for the second.

First: O=C1O[C@H](c2ccccc2)[C@H](c2ccccc2)N(C(=O)OCc2ccccc2)[C@H]1Cc1ccccc1C1CCCC1
Second: Oc1ccc(Nc2nc(NCc3ccccc3)c3ccccc3n2)cc1
The pIC50 of the first is 0.50 log units higher: 7.22 for the first, 6.72 for the second.

`CCN(CC)CCCCNc1cc(-c2[nH]c(-c3c(Cl)cccc3Cl)nc2-c2ccc3cc(OC)ccc3c2)ccn1` and `CCN(CC)CCN(Cc1ccc(-c2ccc(C(F)(F)F)cc2)cc1)C(=O)Cn1c(CCc2cccc(F)c2F)nc(=O)c2cc(C)ccc21` are within 0.2 log units of each other in pIC50: 6.02 for the first, 6.03 for the second.

First: O=C(/C=C/c1ccc(Cl)c(Cl)c1)NCCCCCN1CCCN(C(=O)Nc2ccc(Cl)cc2)CC1
Second: CN1CCC(N2CCN(CCOc3cc(NC(=O)/C=C/c4ccccc4Cl)ccc3Br)CC2)CC1
The pIC50 of the first is 0.31 log units lower: 6.13 for the first, 6.44 for the second.

`Cc1ccc(S(=O)(=O)N2CCN(C(=O)c3cc(-c4cccs4)[nH]n3)CC2)c(C)c1` and `Cc1ccc(C)c(CN2CCC(CNC(=O)c3cc4ccc5cccnc5c4[nH]3)CC2)c1` are within 0.2 log units of each other in pIC50: 6.06 for the first, 6.00 for the second.

First: CCC[C@@H]1CCN[C@H]([C@H](O)c2ccnc3ccc(OC)cc23)C1
Second: COc1ccc2c(NN=Cc3ccc(F)cc3)ccnc2c1
The pIC50 of the first is 0.22 log units lower: 6.14 for the first, 6.36 for the second. The second is the more potent here.

Going from `O=C(NCc1ccc(Cl)c(Cl)c1)c1ccc(-c2nc3cc(F)c(F)cc3[nH]2)cc1` to `Cc1noc(C)c1-c1cccc(CNCc2ccc(-c3cccc(-c4nc5ccc(C(F)(F)F)cc5[nH]4)c3)cc2)c1`, the pIC50 rises from 5.98 to 6.25 (0.27 log units).

`N#Cc1cncc(-c2nc3c(N4CCCC(N)C4)cccc3n2CCNCc2ccccc2)c1` (centres undefined) and `O=[N+]([O-])c1ccc(-n2nc(Cc3ccccc3)n(Cc3cccc(F)c3)c2=S)c(C(F)(F)F)c1` are the same in pIC50: 6.11 for the first, 6.11 for the second.

`Cn1nc(C(F)(F)F)c(-c2ccc(F)cc2)c1NC(=O)Nc1ccc(F)cc1` and `COc1cccc(NC(=O)Nc2c(-c3cccc(C(F)(F)F)c3)c(C(F)(F)F)nn2C)c1` are within 0.2 log units of each other in pIC50: 6.12 for the first, 6.04 for the second.

`CC(=O)C1(c2ccccc2)CCN(CCC(NC(=O)c2cc(C(F)(F)F)cc(C(F)(F)F)c2)c2ccc(Cl)c(Cl)c2)CC1` (centres undefined) and `CC(C)CC(C)NC(=O)C1Cc2c([nH]c3cc(Cl)ccc23)C2(CCN(CCc3ccccc3)CC2)N1` (centres undefined) are within 0.2 log units of each other in pIC50: 5.92 for the first, 6.09 for the second.

`Cc1c(Cl)cccc1S(=O)(=O)Nc1cccc(CCN2CCC(N3CCCCC3)CC2)c1` and `CN1CCN(c2nsc3ccc(-c4ccc(OCCN5CCCC5)cc4)cc23)CC1` are the same in pIC50: 6.08 for the first, 6.08 for the second.

First: CCC1CN2CCc3cc(OC)c(OC)cc3C2CC1CC1NCCc2cc(OC)c(OC)cc21 (centres undefined)
Second: CCn1cc(C=C2Oc3c(ccc(O)c3CN3CCCCC3)C2=O)c2ccccc21
The pIC50 of the first is 0.30 log units higher: 6.85 for the first, 6.55 for the second.

Going from `O=C(Nc1cccc([N+](=O)[O-])c1)N(Cc1ccc(Cl)c(Cl)c1)C1CCNCC1` to `Cc1cc(NC(=O)c2ccsc2)ccc1OC1CCN(Cc2ccc(F)cc2)CC1`, the pIC50 falls from 6.14 to 5.91 (0.23 log units).

Compared with `Cc1cc(N2CCOCC2)nc(Nc2ccc(NC(=O)c3cccc4ccccc34)cc2)n1`, `Cc1ccccc1N1CCN(c2ccc(C(=O)Nc3ccccc3)cc2)CC1` is 0.25 log units higher in pIC50: 5.89 for the first, 6.14 for the second.

`Cc1cc(N[C@@H](CC(C)C)C(=O)NCc2cccs2)nc(NCCc2ccc(F)cc2)n1` and `COc1ccc(-c2nnc(Sc3ccc(C#N)c([N+](=O)[O-])c3)n2CCC(C)C)cc1` are within 0.2 log units of each other in pIC50: 6.10 for the first, 5.95 for the second.

Going from `CCCCCN1CCCC1CNS(=O)(=O)c1ccc(C(=O)Nc2ccc(C(F)(F)F)cc2)cc1` (centres undefined) to `O=C(Nc1ccc(OC(F)(F)F)cc1)NC1CCN(c2ccnc3ccccc23)CC1`, the pIC50 rises from 6.08 to 6.52 (0.44 log units).

Compared with `Clc1ccc(-c2ncc(-c3ccncc3)[nH]2)cc1Cl`, `Cc1cc(NN=Cc2ccccn2)c2cc(C(F)(F)F)ccc2n1` is 0.24 log units higher in pIC50: 5.97 for the first, 6.21 for the second.

`CC(=O)c1ccc2nc[nH]c(=O)c2c1` and `CC(C)(C)c1ccccc1OC(=O)c1ccccc1` are within 0.2 log units of each other in pIC50: 6.14 for the first, 6.13 for the second.

`CCCNCc1ccc(-c2ccc(CN(CC3CCCO3)C(=O)C3CC(=O)c4ccccc43)cc2)nc1` (centres undefined) and `O=C(NCC1CCC(C(=O)O)CC1)c1ccc(/C=C/C(=O)N2CCc3ccccc3C2c2ccc3c(c2)OCO3)cc1` (centres undefined) are within 0.2 log units of each other in pIC50: 6.07 for the first, 6.05 for the second.

`Cc1ccccc1C1CCN(C2CCC(NC(=O)/C=C/c3c[nH]c4ccccc34)CC2)CC1` (centres undefined) and `O=C(NC1CCCC1)c1ccc(N2CCC(NCc3cc4cc(Cl)ccc4[nH]3)CC2)cc1` are within 0.2 log units of each other in pIC50: 6.09 for the first, 5.91 for the second.

Going from `Cc1ccc(C2(C)CC(C)(C)N(C(=O)COc3ccc4ccccc4c3)c3ccccc32)cc1` (centres undefined) to `Cc1[nH]nc2ccc(-c3cc(OC[C@@H](N)Cc4ccccc4)cnc3-c3cc4ccccc4s3)cc12`, the pIC50 falls from 6.96 to 6.09 (0.87 log units).

Compared with `O=C(NCC1CC1)C1CCN(C(c2ccccc2)c2cc(F)cc(F)c2)CC1` (centres undefined), `OC(CNCc1ccccc1Oc1ccccc1)c1cc(Br)cs1` (centres undefined) is 0.47 log units lower in pIC50: 6.42 for the first, 5.95 for the second. The first is the more potent here.

`CNc1nc(NN=Cc2cc3c(cc2[N+](=O)[O-])OCO3)nc(Nc2cccc(C(F)(F)F)c2)n1` and `CCNc1cc(C(=O)N[C@@H](Cc2ccccc2)[C@H](O)CNCc2cccc(-n3ccnc3)c2)cc(N2CCCC2=O)c1` are within 0.2 log units of each other in pIC50: 6.11 for the first, 6.20 for the second.

`c1ccc2c(NCCCCCCCCCNc3c4ccccc4nc4ccccc34)c3ccccc3nc2c1` and `CCOC(=O)c1c(-c2ccccc2)[nH]c2c(sc3ccccc32)c1=O` are within 0.2 log units of each other in pIC50: 6.52 for the first, 6.43 for the second.

Work on `Cc1noc(C)c1-c1cccc(CNCc2ccc(-c3ccc(-c4nc5c(C)cccc5[nH]4)cc3)cc2)c1` yielded a pIC50 of 6.62.
